PubChem BioAssay AID1996
Converted amounts (≈) assume the structure as drawn.

conditions: buffer; pH 7.4; 200.0 µM

| SMILES | solubility kinetic [µg/mL] |
| --- | --- |
| N#Cc1cccnc1Oc1ccccc1 | 25.3 (≈ 129 µM) |
| CSCCC(NC(=O)COc1ccccc1)C(=O)O (stereo not drawn) | 31.7 (≈ 112 µM) |
| CC(C)(C)c1csc(NC(=O)c2cccnc2)n1 | 10 (≈ 38.3 µM) |
| COc1ccc(-c2nc(C(=O)O)cs2)cc1OC | > 39.8 |
| CCN(Cc1cnn(C)c1)Cc1nc(Cc2ccccc2Cl)no1 | > 51.9 |
| COc1cc2c(cc1OC)/C(=C/C(=O)c1ccc(C)cc1)NCC2 | 24.8 (≈ 76.7 µM) |
| Cc1ccc(-c2csc(NC(=O)C3CC(=O)N(Cc4ccco4)C3)n2)cc1 (stereo not drawn) | 12.1 (≈ 31.7 µM) |
| CCC(C)Nc1cc(C)c(C#N)c2nc3ccccc3n12 (stereo not drawn) | 3.7 (≈ 13.3 µM) |
| O=c1[nH]c(SCCOc2ccccc2F)nc2ccccc12 | 0.9 (≈ 2.84 µM) |
| Oc1ccc(NCc2cccc(OCc3ccccc3)c2)cc1 | 38.1 (≈ 125 µM) |
| O=C(NCc1cccnc1)Nc1ccc(Br)cc1 | > 45.9 |
| CC(C)Cc1nc2ccccc2[nH]1 | > 26.1 |
| CCOC(=O)C(NCCOC)(NC(C)=O)C(F)(F)F (stereo not drawn) | > 42.9 |
| COc1cc(C(=O)Nc2cccc(NC(=O)c3cccs3)c2)cc(OC)c1OC | 13.5 (≈ 32.7 µM) |
| CC(=O)Nc1ccc(C(=O)NCCCSc2ccccc2)cc1 | 5.3 (≈ 16.1 µM) |
| CCOc1ccccc1NC(=O)NC(=O)N(C)S(C)(=O)=O | 18 (≈ 57.1 µM) |
| CCN(CC)CCNS(=O)(=O)c1ccc2c3c(cccc13)C(=O)N2 | > 52.1 |
| CCC(C(=O)Nc1cc(Cl)c(OC)cc1OC)c1ccccc1 (stereo not drawn) | < 0.7 |
| CC(NC(=O)c1cnccn1)c1ccc(S(N)(=O)=O)cc1 (stereo not drawn) | > 46 |
| Cc1cc(S(=O)(=O)N2CCOCC2)c(C)s1 | > 39.2 |
| CC(C)(C)NC(=O)N1CCCN(c2ccc(C(F)(F)F)cn2)CC1 | > 51.7 |
| O=C(NC(=S)Nc1ccc2nc[nH]c2c1)c1ccccc1 | 35 (≈ 118 µM) |
| Cc1ccc(NC(=O)CCN2CCC(Cc3ccccc3)CC2)cc1 | 22.6 (≈ 67.2 µM) |
| CN(C)c1ccc(N2C(=O)CC(c3ccccc3)CC2=O)cc1 | 12.3 (≈ 39.9 µM) |

| SMILES | solubility kinetic [µg/mL] |
| --- | --- |
| O=C(NC1CCCCCC1)c1ccc[nH]c1=S | > 37.6 |
| CC(C)[C@H](NC(N)=O)C(=O)NCCc1ccc(Cl)cc1 | > 44.7 |
| Cc1[nH]c(=O)[nH]c(=O)c1Sc1ccccc1[N+](=O)[O-] | 20.5 (≈ 73.4 µM) |
| COc1ccc(N=CC2=C(O)CC(C)(C)CC2=O)cc1OC | > 45.5 |
| Cc1ccc2nc(NC(=O)C3CC3C)sc2c1 (stereo not drawn) | 2.4 (≈ 9.74 µM) |
| O=C(NC(=S)N1CCCC1)c1ccc(Cl)cc1Cl | 32.5 (≈ 107 µM) |
| Cc1cc(=O)[nH]c(Nc2ccc(Cl)cc2)n1 | > 35.4 |
| COc1ccc(S(=O)(=O)N2CCOCC2)cc1NC(=O)COC(=O)c1[nH]c(C)c(C(C)=O)c1C | 8.8 (≈ 17.8 µM) |
| CCOc1ccc(NC(=O)C2C3CC/C=C\CCC32)cc1 (stereo not drawn) | < 0.6 |
| COc1ccc(NC(=O)N2CCCCCC2)cc1OC | > 41.8 |
| CC(CCc1ccccc1)NCC(O)c1cccc([N+](=O)[O-])c1.Cl (stereo not drawn) | > 52.6 |
| Cc1cc(C)cc(NC(=O)Nc2cc(S(=O)(=O)N(C)C)ccc2C)c1 | 0.6 (≈ 1.66 µM) |
| CN(C(=O)COC(=O)c1cc(=O)[nH]c2ccccc12)c1ccccc1 | 11.6 (≈ 34.5 µM) |
| O=C(NCCN1CCOCC1)C(=O)c1c[nH]c2ccccc12 | > 45.2 |
| COc1ccc(N2CCN(C(=S)NCc3ccc(C)cc3)CC2)cc1 | < 0.3 |
| Cc1cc(/C=C(\C#N)C(=O)NCc2ccccc2)cc(C)c1O | < 0.3 |
| COc1ccc(S(=O)(=O)NCCCN2CCCC2=O)cc1OC | 47.4 (≈ 138 µM) |
| O=C(NCc1csc2ccccc12)Nc1cc(Cl)cc(Cl)c1 | 2.1 (≈ 5.98 µM) |
| Cc1ccc(-c2noc(N=O)c2NO)cc1 | 31.5 (≈ 144 µM) |
| COc1cccc2[nH]c(=O)c(-c3ccccc3)cc12 | 1.4 (≈ 5.57 µM) |
| Cc1cc(C)cc(NC(=O)N2CCc3ccccc3C2)c1 | 1.3 (≈ 4.64 µM) |
| Nc1cccc(S(=O)(=O)Nc2ccccc2)c1 | > 37.2 |
| O=C(O)c1ccccc1-c1ccccc1C(=O)Nc1ccc2c(c1)CCC2 | > 53.6 |
| O=C(NC1CCCCC1)C1CC(=O)N(CCc2ccc(F)cc2)C1 (stereo not drawn) | 45 (≈ 135 µM) |

| SMILES | solubility kinetic [µg/mL] |
| --- | --- |
| CCN(CC)c1ccc(C(=O)OCC(=O)Nc2ncccn2)cc1 | 2.4 (≈ 7.31 µM) |
| CC(=O)OCCN(C)c1cc(SC(C)C)c2nonc2c1[N+](=O)[O-] | 51.2 (≈ 144 µM) |
| C=CCn1c(O)c(C(CC)=Nc2ccc(N(C)C)cc2)c(=O)[nH]c1=O | 1.5 (≈ 4.38 µM) |
| Br.COc1ccc(C2=CSC3=NCCN23)cc1 | > 47 |
| NC(=O)CC(NSc1ccccc1[N+](=O)[O-])C(=O)O (stereo not drawn) | 36.9 (≈ 129 µM) |
| CSCCC1NC(=O)N(CC(=O)Nc2cccc(S(=O)(=O)N3CCCCCC3)c2)C1=O (stereo not drawn) | 52.3 (≈ 112 µM) |
| Cn1c(=O)c2c(nc(SCC(=O)N3CCOCC3)n2C)n(C)c1=O | > 53 |
| CC1CCC2C(C1)Nc1c(C(=O)O)cccc1C2(C)C (stereo not drawn) | > 41 |
| O=S(=O)(NOCc1ccc(Cl)cc1)c1ccc(Cl)cc1 | < 0.7 |
| Cn1c(CCC(=O)O)nc2cc(S(=O)(=O)N3CCCC3)ccc21 | > 50.6 |
| CCN(CC(=O)NCc1cccs1)C(=O)c1cc(=O)[nH]c2ccccc12 | > 55.4 |
| CN1CCC(N(C)C(=O)c2cccc(S(=O)(=O)N3CCc4ccccc43)c2)CC1 | > 62 |
| CCOc1ccc(C(C)=O)cc1COc1cccnc1[N+](=O)[O-] | 6 (≈ 19 µM) |
| Cc1cccc(N2C(=O)NC(=O)/C(=C\C=C\c3ccco3)C2=O)c1 | 39.2 (≈ 122 µM) |
| O=C1C2CCCCN2C(=O)N1CCCCN1CCN(c2cccc(Cl)c2)CC1 (stereo not drawn) | 54.2 (≈ 134 µM) |
| Cc1nc2ccccn2c1C(=O)NNC(=O)Nc1cccc(C(F)(F)F)c1 | > 56.6 |
| CCCC(=O)N=c1sc2c(OC)ccc(OC)c2n1C | < 0.3 |
| Cc1c(-c2ccc(Br)cc2)[n+](=O)c2c(n1[O-])CCCC2 | > 50.3 |
| CCc1ccccc1NC(=O)NCCN1CCCCC1 | > 41.3 |
| NC(=O)COc1ccc2oc(=O)cc(-c3cc4ccccc4o3)c2c1 | 1 (≈ 2.98 µM) |
| O=C(Nc1cc2c3c(c1)CC(=O)N3CCC2)c1ccc(Br)cc1 | 10.3 (≈ 27.7 µM) |
| O=C(c1ccccc1)N1CCN(C(=O)C2CC2)CC1 | 38.2 (≈ 148 µM) |
| O=C(COC(=O)c1ccc2c(c1)OCCO2)Nc1ccc(F)cc1 | 2.6 (≈ 7.85 µM) |
| CCC(=O)Nc1cccc2cccnc12 | 25 (≈ 125 µM) |

| SMILES | solubility kinetic [µg/mL] |
| --- | --- |
| CCOC(=O)C1CCN(Cc2cccc(Oc3ccccc3)c2)CC1 | 17 (≈ 50.1 µM) |
| C=CCC1(N(C(C)=O)c2ccccc2C)CCCCC1 | 6.7 (≈ 24.7 µM) |
| O=C(COC(=O)COc1cccc(F)c1)Nc1nc2ccccc2s1 | 45.1 (≈ 125 µM) |
| CCn1c(C)c(C)c2cc(C(=O)N3CCCC3)ccc21 | > 40.6 |
| O=C(CN1C(=O)COc2ccccc21)NCCCN1CCOCC1 | > 50 |
| Cc1cccn2c(=O)c(C=O)c(N3CC(C)OC(C)C3)nc12 (stereo not drawn) | > 45.2 |
| Cn1nccc1NC(=O)Nc1ccc(Cl)cc1 | > 37.6 |
| O=C(O)c1cccc(Nc2nc3ccccc3nc2NS(=O)(=O)c2ccc(F)cc2)c1 | > 65.8 |
| CC(NC(=O)Nc1cccc(F)c1)c1ccc2c(c1)OCO2 (stereo not drawn) | 2.1 (≈ 6.95 µM) |
| Cc1cccc(NC(=O)C(=O)NCC2CCCO2)c1 (stereo not drawn) | > 39.3 |
| CCOC(=O)N1CCN(c2ccnc3cc(Cl)ccc23)CC1 | 43.9 (≈ 137 µM) |
| Cc1cc(C)c(C)c(S(=O)(=O)NC2CCCCC2)c1C | < 0.6 |
| CC(C)C(=O)Nc1ccc(S(=O)(=O)Nc2ccccn2)cc1 | > 47.9 |
| O=C(NC1CCCCCC1)C1CCN(S(=O)(=O)c2cnc[nH]2)CC1 | 50.7 (≈ 143 µM) |
| O=C(CCNC(=O)c1ccco1)Nc1nc2ccccc2s1 | 4.5 (≈ 14.3 µM) |
| O=C(CN1C(=O)NC(c2ccccc2)(c2ccccc2)C1=O)NCCNCCO | > 59.5 |
| Cc1c(O)ccc(C(=O)CN2CCN(Cc3ccccc3)CC2)c1O | 38.1 (≈ 112 µM) |
| CCOc1cccc(C(=O)N2CCCN(C)CC2)c1 | 35.6 (≈ 136 µM) |
| Cc1ccc(C(=O)N2CCC(C(=O)NC3CCCC3)CC2)cc1 | 44 (≈ 140 µM) |
| Cc1ccc(CC(=O)Nc2ncc([N+](=O)[O-])s2)cc1 | 6.5 (≈ 23.4 µM) |
| Cc1cc(N2CCCC2)ccc1NC(=O)COc1ccc(Cl)cc1 | 4.4 (≈ 12.8 µM) |
| Cl.Clc1ccc(-c2ccc(CNCC3CCCO3)o2)cc1 (stereo not drawn) | > 49.2 |
| CC(NC(=O)CNC(=O)c1cccc(Cl)c1)c1ccccc1 (stereo not drawn) | 43.7 (≈ 138 µM) |
| CC(C)CNC(=O)CSc1nnc2ccccn12 | > 39.7 |

| SMILES | solubility kinetic [µg/mL] |
| --- | --- |
| CC(C)N(C(=S)Nc1ccc(S(=O)(=O)N2CCOCC2)cc1)c1ccccc1 | 7.1 (≈ 16.9 µM) |
| Cc1noc(C)c1C(=O)OCC(=O)Nc1ncc(C(F)(F)F)cc1Cl | 16.8 (≈ 44.5 µM) |
| CCN(CC)S(=O)(=O)c1ccc(N2CCc3ccccc3C2)nc1 | 25.8 (≈ 74.7 µM) |
| O=S(=O)(N1CCOCC1)N1CCOCC1 | > 35.4 |
| CC1C(=O)N2CCCc3cc(NC(=O)C4CC4)cc1c32 (stereo not drawn) | 36.3 (≈ 134 µM) |
| CC(CC(=O)O)CC(=O)Nc1nncs1 (stereo not drawn) | > 34.4 |
| CC(OC(=O)CCCC(=O)Nc1ccc(F)cc1)C(=O)c1ccccc1 (stereo not drawn) | 44.7 (≈ 125 µM) |
| COc1cccc(OC(=O)N2CCOCC2)c1 | > 35.6 |
| CN(C(=O)COc1cccc(C#N)c1)C1CCS(=O)(=O)C1 (stereo not drawn) | > 46.3 |
| Cc1cccc2sc(N(CCN(C)C)C(=O)c3ccc4ccccc4c3)nc12.Cl | 0.4 |
| Cc1ccc2oc(C(=O)N(C)Cc3cnccn3)c(C)c2c1 | > 44.3 |
| O=C(NCC1CCCCC1)c1ccc(Br)o1 | > 42.9 |
| CC(=O)c1ccc(S(=O)(=O)N2CCN(C(C)C(=O)N(C)Cc3ccccc3)CC2)cc1 (stereo not drawn) | 44 (≈ 99.2 µM) |
| Cc1cc(Nc2ccc(Cl)cc2)nc(-c2ccccc2O)n1 | 0.2 (≈ 0.641 µM) |
| NC(=O)[C@@H]1CCCN1Cc1nc(Cc2ccccc2F)no1 | > 45.6 |
| Cc1cccc(NC(=O)c2nc[nH]c2C(=O)Nc2cccc(C)c2)c1 | 0.2 (≈ 0.598 µM) |
| COC(=O)C1=C(C)NC(=O)NC1c1ccc(-c2ccc(Cl)cc2)o1 (stereo not drawn) | 4.8 (≈ 13.8 µM) |
| Cc1ccc(NC(=O)C2CCN(c3nc(C)cc(C)n3)CC2)cc1 | 2.4 (≈ 7.4 µM) |
| Nc1cc(S(=O)(=O)c2ccc(O)c(N)c2)ccc1O | > 42 |
| CO/N=C(/COc1ccc(F)cc1)c1ccc(OC)cc1 | < 0.6 |
| O=[N+]([O-])c1cccnc1NCCc1c[nH]c2ccccc12 | 0.3 (≈ 1.06 µM) |
| COc1ccccc1C(=O)N(Cc1ccccc1)c1ccc(C)cc1 | 24.1 (≈ 72.7 µM) |
